Test results taken from patent US20210330821A1, “METHODS OF MAKING PROSTATE CANCER TREATMENT DECISIONS” (priority 2018, published 2021).

Assay: OSPREY safety: drug-related adverse events after 18F-DCFPyL
Format: in vivo, human
Experimental: The coprimary endpoints of sensitivity and specificity of ^18F-DCFPyL PET/CT for detecting pelvic lymph node metastases were evaluated in Cohort A. Secondary endpoints included safety in both cohorts, positive predictive value (PPV) and negative predictive value (NPV) in Cohort A, and sensitivity and PPV in Cohort B. Three central, blinded, and independent readers evaluated the ^18F-DCFPyL scans. Histopathology served as the reference standard to which imaging findings were compared. FIG. 1 provides information regarding the study design and cohorts.
Co-primary endpoints of specificity and sensitivity of ^18F-DCFPyL PET/CT for detecting prostate cancer metastases in pelvic lymph nodes were evaluated in Cohort A. Key secondary endpoints included incidence of adverse events, positive predictive value (PPV) and negative predictive value (NPV) of ^18F-DCFPyL PET/CT imaging to detect pelvic lymph node metastases in Cohort A, sensitivity and PPV of ^18F-DCFPyL PET/CT imaging to detect prostate cancer within sites of metastasis or recurrence in Cohort B. Three central, blinded, and independent readers evaluated the ^18F-DCFPyL scans. Imaging findings were compared to histopathology as the truth standard.
Pts underwent image-guided biopsy.

SMILES: O=C(O)CC[C@H](NC(=O)N[C@@H](CCCCNC(=O)c1ccc([18F])nc1)C(=O)O)C(=O)O [18F-DCFPyL]
- Cohort B pts who experienced ≥1 drug-related AE (Cohort B, 117 men, dysgeusia and generalized rash): 1.7%
- Severity of drug-related AEs (Cohort B, dysgeusia and generalized rash): mild (Grade 1)
- Dysgeusia (drug-related adverse event) (both cohorts): 2.1%
- Headache (drug-related adverse event) (both cohorts): 2.1%
- Drug-related serious adverse events (both cohorts, 385 men): No drug-related serious adverse events were observed
- Men who experienced ≥1 drug-related adverse event (both cohorts, 385 men): 7.0%
- Tolerability (patients with PCa, OSPREY): generally well tolerated
